Results as given in patent publication US8691286B2, “Sputum dissolving suctioning solution for endotracheal and tracheostomy tubes” (Teleflex Medical Incorporated, priority 2009, dated 2014).

Assay: Effective concentration of glycerol (Example 2; sputum dried 4 hours, 15 minutes incubation in third cycle)
Design: species or system Human
Details: glycerol and dextran sulfate combination in 0.85% NaCl
Description: Test solutions containing different concentrations of glycerol and dextran sulfate (w/v) were prepared in 0.85% normal saline. All steps were performed at 37° C. unless specified otherwise. Each well of a 48 well microtitre plate was pre-wetted with a test solution for 2 hours. Human sputum (20 μl) was then allowed to dry for 2 hours on the pre-wetted surface, followed by incubation with 100 μl of the test solution for 15 minutes to dissolve the dried sputum, and subsequent removal of the solution. The complete cycle of sputum drying, incubation with the test solution and removal, was repeated three times. In the third and final cycle, the dried sputum was incubated with the test solution overnight instead of 15 minutes. Visual observations were recorded at each cycle and pictures were taken under a microscope.
Sputum was dried for 4 hours instead of 2 hours in each cycle, and in the third cycle dried sputum was incubated with the test solution for only 15 minutes instead of an overnight incubation.
All the test solutions contained 0.85% of NaCl.

Compound | Most effective concentration range
OCC(O)CO [glycerol] | 30-50%
dextran sulfate | 10-20%
